Experiments:
Format in all cases: in vivo
Alopecurus myosuroides [1] = test: Post-emergence herbicidal activity, glasshouse pot test; parameters: key: 0 = no damage to plant, 5 = total damage to plant; settings: Application post-emergence, rate 1000 g/ha, evaluated after 13 days
Procedure: (§1) Seeds of a variety of test species were sown in standard soil in pots. After 8 days cultivation (post-emergence) under controlled conditions in a glasshouse (at 24/16° C., day/night; 14 hours light; 65% humidity), the plants were sprayed with an aqueous spray solution derived from the formulation of the technical active ingredient in acetone/water (50:50) solution containing 0.5% Tween 20 (polyoxyethelyene sorbitan monolaurate, CAS RN 9005-64-5). The test plants were then grown in a glasshouse under controlled conditions (at 24/16° C., day/night; 14 hours light; 65% humidity) and watered twice daily. After 13 days, the test was evaluated (5=total damage to plant; 0=no damage to plant).
(§2) ABUTH=Abutilon theophrasti; SOLNI=Solanum nigrum; AMARE=Amaranthus retroflexus; SETFA=Setaria faberi; ALOMY=Alopecurus myosuroides; ECHCG=Echinochloa crus-galli, ZEAMX=zea mays.

Abutilon theophrasti [2] = test: as above; parameters: key: 0 = no damage to plant, 5 = total damage to plant; settings: Application post-emergence, rate 1000 g/ha, evaluated after 13 days
Procedure: as §1, §2

Echinochloa crus-galli [3] = test: as above; parameters: key: 0 = no damage to plant, 5 = total damage to plant; settings: Application post-emergence, rate 1000 g/ha, evaluated after 13 days
Procedure: as §1, §2

Setaria faberi [4] = test: as above; parameters: key: 0 = no damage to plant, 5 = total damage to plant; settings: Application post-emergence, rate 1000 g/ha, evaluated after 13 days
Procedure: as §1, §2

zea mays [5] = test: as above; parameters: key: 0 = no damage to plant, 5 = total damage to plant; settings: Application post-emergence, rate 1000 g/ha, evaluated after 13 days
Procedure: as §1, §2

Amaranthus retroflexus [6] = test: as above; parameters: key: 0 = no damage to plant, 5 = total damage to plant; settings: Application post-emergence, rate 1000 g/ha, evaluated after 13 days
Procedure: as §1, §2

Alopecurus myosuroides [7] = test: Pre-emergence herbicidal activity, glasshouse pot test; settings: pre-emergence spray, rate 1000 g/ha, evaluated after 13 days, scale 0-5
Procedure: as §1, with “After” for “After 8 days”, “for one day (pre-emergence)” for “(post-emergence)”
as §2

Abutilon theophrasti [8] = test: as above; settings: pre-emergence spray, rate 1000 g/ha, evaluated after 13 days, scale 0-5
Procedure: as §1, with “After” for “After 8 days”, “for one day (pre-emergence)” for “(post-emergence)”
as §2

Echinochloa crus-galli [9] = test: as above; settings: pre-emergence spray, rate 1000 g/ha, evaluated after 13 days, scale 0-5
Procedure: as §1, with “After” for “After 8 days”, “for one day (pre-emergence)” for “(post-emergence)”
as §2

Setaria faberi [10] = test: as above; settings: pre-emergence spray, rate 1000 g/ha, evaluated after 13 days, scale 0-5
Procedure: as §1, with “After” for “After 8 days”, “for one day (pre-emergence)” for “(post-emergence)”
as §2

zea mays [11] = test: as above; settings: pre-emergence spray, rate 1000 g/ha, evaluated after 13 days, scale 0-5
Procedure: as §1, with “After” for “After 8 days”, “for one day (pre-emergence)” for “(post-emergence)”
as §2

Amaranthus retroflexus [12] = test: as above; settings: pre-emergence spray, rate 1000 g/ha, evaluated after 13 days, scale 0-5
Procedure: as §1, with “After” for “After 8 days”, “for one day (pre-emergence)” for “(post-emergence)”
as §2

SMILES	ALOMY herbicidal damage score (Alopecurus myosuroides [1])	ABUTH herbicidal damage score (Abutilon theophrasti [2])	ECHCG herbicidal damage score (Echinochloa crus-galli [3])	SETFA herbicidal damage score (Setaria faberi [4])	ZEAMX herbicidal damage score (zea mays [5])	AMARE herbicidal damage score (Amaranthus retroflexus [6])	ALOMY damage score, application pre-emergence (Alopecurus myosuroides [7])	ABUTH damage score, application pre-emergence (Abutilon theophrasti [8])	ECHCG damage score, application pre-emergence (Echinochloa crus-galli [9])	SETFA damage score, application pre-emergence (Setaria faberi [10])	ZEAMX damage score, application pre-emergence (zea mays [11])	AMARE damage score, application pre-emergence (Amaranthus retroflexus [12])
CC1=C(Cl)C(=O)N(c2cc(F)ccn2)C1O (stereo not drawn) [AF39]	4	5	5	4	2	5	3	4	4	3	1	4
CC1=C(Cl)C(=O)N(c2cc(C(C)F)ccn2)C1O (stereo not drawn) [AF40]	3	5	5	4	5	5	2	5	4	5	2	5
CC1=C(Cl)C(=O)N(c2cc(C)ccn2)C1O (stereo not drawn) [AF41]	5	5	5	5	4	5	4	5	4	4	3	5
COC(=O)c1cnc(N2C(=O)C(Cl)=C(C)C2O)cc1C(F)(F)F (stereo not drawn) [AF42]	3	4	4	5	1	4	0	0	0	0	0	0
CC1=C(Cl)C(=O)N(c2cc(C(F)(F)F)c(C(F)(F)F)cn2)C1O (stereo not drawn) [AF43]	2	1	5	5	0	1	0	0	0	0	0	0
COc1ccnc(N2C(=O)C(Cl)=C(C)C2O)c1 (stereo not drawn) [AF44]	3	3	4	1	2	1	0	0	0	0	0	0
CC1=C(Cl)C(=O)N(c2cc(C)c([N+](=O)[O-])cn2)C1O (stereo not drawn) [AF48]	2	0	3	3	0	5	1	0	1	0	0	0
CC1=C(Cl)C(=O)N(c2cc(C#N)ccn2)C1O (stereo not drawn) [AF50]	5	5	5	5	2	1	2	0	0	1	0	0
CC1=C(Cl)C(=O)N(c2cc([S+](C)[O-])ccn2)C1O (stereo not drawn) [AF51]	3	4	3	3	0	0	0	0	0	0	0	0
CC1=C(Cl)C(=O)N(c2ccc([S+](C)[O-])cn2)C1O (stereo not drawn) [AF53]	3	3	3	3	0	1	2	0	1	0	1	1
CC1=C(Cl)C(=O)N(c2ccc(S(C)(=O)=O)cn2)C1O (stereo not drawn) [AF54]	2	2	3	1	0	0	0	0	1	0	2	0
COc1ccc(N2C(=O)C(Cl)=C(C)C2O)nc1 (stereo not drawn) [AF56]	4	5	4	4	2	3	0	2	0	0	0	1
CC1=C(Cl)C(=O)N(c2cc(C(F)(F)F)c(Cl)cn2)C1O (stereo not drawn) [AF58]	4	5	5	5	3	5	3	2	4	3	0	5
COc1ccc(-c2ccc(N3C(=O)C(Cl)=C(C)C3O)nc2)cc1 (stereo not drawn) [AF59]	1	4	1	2	0	3	0	2	1	0	0	3
CC1=C(Cl)C(=O)N(c2ccc(C#N)cn2)C1O (stereo not drawn) [AF60]	1	0	1	1	0	0	0	0	0	0	0	0
